Values quoted from earlier work, collected in patent publication US20080132534A1, “Pharmaceutical composition comprising a macrolide immunomodulator” (priority 2003, published 2008).

Test system: allogeneic kidney transplantation
Conditions: rat, oral administration, suppression of systemic immune response

SMILES: C=CC[C@@H]1/C=C(\C)C[C@H](C)C[C@H](OC)[C@H]2O[C@@](O)(C(=O)C(=O)N3CCCC[C@H]3C(=O)O[C@H](/C(C)=C/[C@@H]3CC[C@@H](O)[C@H](OC)C3)[C@H](C)[C@@H](O)CC1=O)[C@H](C)C[C@@H]2OC [tacrolimus]
- minimum effective dose (MED): 14 mg/kg
